Measurements: BindingDB's records for doi:10.7270/Q28G8J4C (Broad Institute, 2009)

Biological target: T1, POsterior Segregation (Caenorhabditis elegans, UniProt G5EF15)
T1 sequence (G5EF15 whole entry): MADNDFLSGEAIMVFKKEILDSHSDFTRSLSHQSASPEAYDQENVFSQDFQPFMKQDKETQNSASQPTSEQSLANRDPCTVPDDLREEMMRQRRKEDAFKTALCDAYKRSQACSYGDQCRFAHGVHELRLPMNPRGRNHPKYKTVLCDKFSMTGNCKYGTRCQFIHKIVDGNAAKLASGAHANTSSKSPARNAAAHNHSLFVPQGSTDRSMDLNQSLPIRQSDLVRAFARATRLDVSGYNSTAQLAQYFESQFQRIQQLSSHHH
Test: inhibitors of POS-1/mex-3 RNA binding, dose response, biochemical, fluorescence polarization (AID 1964)

EC50 | SMILES
> 300 µM | N#CC1C(=N)Oc2cc(O)c(Cl)cc2C1c1ccccc1F (configuration not stated) [2-Amino-6-chloro-4-(2-fluoro-phenyl)-7-hydroxy-4H-chromene-3-carbonitrile]
> 300 µM | O=CC(C=Nc1ccccn1)c1nc2ccccc2o1 (configuration not stated) [2-Benzooxazol-2-yl-3-(pyridin-2-ylamino)-propenal]
36.3 µM | CN1C(=O)/C(=C/c2ccc(-c3ccccc3[N+](=O)[O-])o2)S/C1=N/c1ccc(Cl)c(C(=O)O)c1 [2-Chloro-5-[3-methyl-5-[1-[5-(2-nitro-phenyl)-furan-2-yl]-meth-(Z)-ylidene]-4-oxo-thiazolidin-(2Z)-ylideneamino]-benzoic acid]
70 µM | O=C(CC(=O)c1ccccc1)C(=O)NNC(=O)c1ccccc1[N+](=O)[O-] [2-Nitro-benzoic acid N'-(2-hydroxy-4-oxo-4-phenyl-but-2-enoyl)-hydrazide]
> 300 µM | CC(N=Nc1ccc([N+](=O)[O-])cc1[N+](=O)[O-])c1cc2c(ccc3ccccc32)oc1=O (configuration not stated) [2-[1-[(2,4-dinitrophenyl)hydrazinylidene]ethyl]-3-benzo[f][1]benzopyranone]
> 300 µM | Oc1csc(N=NCc2cccs2)n1 [2-[2-(thiophen-2-ylmethylidene)hydrazinyl]-1,3-thiazol-4-one]
25.6 µM | CCOc1cc(C=C2SC(Nc3ccc(CC)cc3)=NC2=O)ccc1OCC(=O)O [2-[2-ethoxy-4-[(Z)-[2-(4-ethylanilino)-4-oxo-1,3-thiazol-5-ylidene]methyl]phenoxy]acetic acid]
6.5 µM | C=CCn1c(=O)c(=Cc2ccsc2)s/c1=C(\C#N)C(=O)NCCN1CCOCC1 [2-[3-allyl-4-keto-5-(3-thenylidene)thiazolidin-2-ylidene]-2-cyano-N-(2-morpholinoethyl)acetamide]
30.7 µM | C=CCn1c(=O)c(=Cc2ccc(C)o2)s/c1=C(\C#N)C(=O)c1ccccc1 [2-[3-allyl-4-keto-5-[(5-methyl-2-furyl)methylene]thiazolidin-2-ylidene]-3-keto-3-phenyl-propionitrile]
> 300 µM | Cc1ccc(C(=O)C2C(=O)C(=O)N(Cc3ccco3)C2c2ccc(N(C)C)cc2)o1 (configuration not stated) [2-[4-(dimethylamino)phenyl]-1-(2-furanylmethyl)-4-hydroxy-3-[(5-methyl-2-furanyl)-oxomethyl]-2H-pyrrol-5-one]
34.8 µM | COc1ccc(C2CC(=O)C(=CNCCCO)C(=O)C2)cc1 (configuration not stated) [2-[(3-hydroxypropylamino)methylidene]-5-(4-methoxyphenyl)cyclohexane-1,3-dione]
16 µM | Cc1ccc(NNC2=Nc3ccccc3C2=O)cc1 [2-[(4-methylphenyl)hydrazo]-3-indolone]
> 300 µM | CC1(C)CC(=O)C2=C(C1)OC(=N)C(C#N)[C@@]21C(=O)N(CC(N)=O)c2ccccc21 (stereo partly drawn) [2-[(4R)-2-amino-3-cyano-2',5-diketo-7,7-dimethyl-spiro[6,8-dihydrochromene-4,3'-indoline]-1'-yl]acetamide]
> 300 µM | N#CC1C(=N)OC2=C(C(=O)CCC2)[C@]12C(=O)N(CC(N)=O)c1ccccc12 (stereo partly drawn) [2-[(4R)-2-amino-3-cyano-2',5-diketo-spiro[7,8-dihydro-6H-chromene-4,3'-indoline]-1'-yl]acetamide]
> 300 µM | NC(=O)c1ccccc1N=CCC(=O)c1ccc(F)cc1 [2-[[(E)-3-(4-fluorophenyl)-3-keto-prop-1-enyl]amino]benzamide]
> 300 µM | COc1cccc(CN2C(=O)C3(C4=C(CCCC4=O)OC(=N)C3C#N)c3ccccc32)c1 (configuration not stated) [2-amino-1'-(3-methoxybenzyl)-2',5-dioxo-1',2',5,6,7,8-hexahydrospiro[chromene-4,3'-indole]-3-carbonitrile]
> 300 µM | CC1(C)CC(=O)C2=C(C1)OC(=N)C(C#N)C21C(=O)N(CN2CCOCC2)c2ccccc21 (configuration not stated) [2-amino-2',5-diketo-7,7-dimethyl-1'-(morpholinomethyl)spiro[6,8-dihydrochromene-4,3'-indoline]-3-carbonitrile]
> 300 µM | COc1ccc(C2C3=C(CCCC3=O)OC(=N)C2C#N)cc1OC (configuration not stated) [2-amino-4-(3,4-dimethoxyphenyl)-5-keto-4,6,7,8-tetrahydrochromene-3-carbonitrile]
> 300 µM | COc1ccc(C2C3=C(CC(C)(C)CC3=O)OC(=N)C2C#N)cc1OC (configuration not stated) [2-amino-4-(3,4-dimethoxyphenyl)-5-keto-7,7-dimethyl-6,8-dihydro-4H-chromene-3-carbonitrile]
22.2 µM | N#CC1=C2CCCCC2C(c2cccnc2)C(C#N)(C#N)C1=N (configuration not stated) [2-amino-4-(3-pyridinyl)-4a,5,6,7-tetrahydro-4H-naphthalene-1,3,3-tricarbonitrile]
69.7 µM | COc1ccc(C2C3=C(CC(C)(C)CC3=O)OC(=N)C2C#N)cc1 (configuration not stated) [2-amino-4-(4-methoxyphenyl)-7,7-dimethyl-5-oxo-6,8-dihydro-4H-1-benzopyran-3-carbonitrile]

EC50 | SMILES
> 300 µM | COc1cc(OC)c(C2C3=C(CC(C)CC3=O)OC(=N)C2C#N)cc1OC (configuration not stated) [2-amino-4-asaryl-5-keto-7-methyl-4,6,7,8-tetrahydrochromene-3-carbonitrile]
> 300 µM | N#CC1C(=N)OC2=C(C(=O)CCC2)C1c1ccccc1 (configuration not stated) [2-amino-5-keto-4-phenyl-4,6,7,8-tetrahydrochromene-3-carbonitrile]
> 300 µM | COc1ccc(C2C3=C(CC(C)(C)CC3=O)OC(=N)C2C#N)c(OC)c1OC (configuration not stated) [2-amino-5-keto-7,7-dimethyl-4-(2,3,4-trimethoxyphenyl)-6,8-dihydro-4H-chromene-3-carbonitrile]
> 300 µM | CC1(C)CC(=O)C2=C(C1)OC(=N)C(C#N)C2c1ccccc1 (configuration not stated) [2-amino-5-keto-7,7-dimethyl-4-phenyl-6,8-dihydro-4H-chromene-3-carbonitrile]
> 300 µM | COc1ccc(C2C3=C(CC(C)CC3=O)OC(=N)C2C#N)c(OC)c1OC (configuration not stated) [2-amino-5-keto-7-methyl-4-(2,3,4-trimethoxyphenyl)-4,6,7,8-tetrahydrochromene-3-carbonitrile]
21.7 µM | CC1CCC2=C(C#N)C(=N)C(C#N)(C#N)C(c3cccs3)C2C1 (configuration not stated) [2-amino-6-methyl-4-(2-thienyl)-4a,5,6,7-tetrahydro-4H-naphthalene-1,3,3-tricarbonitrile]
12.3 µM | CCOc1cc(C2C(C(C)=O)=C(C)OC(=N)C2C#N)cc(Br)c1O (configuration not stated) [2-azanyl-4-(3-bromanyl-5-ethoxy-4-oxidanyl-phenyl)-5-ethanoyl-6-methyl-4H-pyran-3-carbonitrile]
> 300 µM | N#CC1C(=N)OC2=C(C(=O)CCC2)C1c1cc2c(cc1Br)OCO2 (configuration not stated) [2-azanyl-4-(6-bromanyl-1,3-benzodioxol-5-yl)-5-oxidanylidene-4,6,7,8-tetrahydrochromene-3-carbonitrile]
> 300 µM | N#CC1C(=N)OC2=C(C(=O)CC(c3ccco3)C2)C1c1ccc(OCc2c(F)cccc2Cl)cc1 (configuration not stated) [2-azanyl-4-[4-[(2-chloranyl-6-fluoranyl-phenyl)methoxy]phenyl]-7-(furan-2-yl)-5-oxidanylidene-4,6,7,8-tetrahydrochromene-3-carbonitrile]
> 300 µM | CC(N=Nc1ccc(Cl)c(C(=O)O)c1)c1ccc[nH]1 (configuration not stated) [2-chloro-5-[2-[(1Z)-1-pyrrol-2-ylideneethyl]hydrazinyl]benzoic acid]
31 µM | O=C(O)c1cc(-c2ccc(CN=Nc3ccc([N+](=O)[O-])cn3)o2)ccc1Cl [2-chloro-5-[5-[[(5-nitropyridin-2-yl)hydrazinylidene]methyl]furan-2-yl]benzoic acid]
> 300 µM | CC1(C)CC(=O)C2=C(C1)OC(=N)C(C#N)C2c1cccc(OC(=O)c2ccco2)c1 (configuration not stated) [2-furancarboxylic acid [3-(2-amino-3-cyano-7,7-dimethyl-5-oxo-6,8-dihydro-4H-1-benzopyran-4-yl)phenyl] ester]
6.46 µM | COc1[nH]c(N=Cc2ccccc2)c(C#N)c1C#N [2-methoxy-5-[(phenylmethylene)amino]-1H-pyrrole-3,4-dicarbonitrile]
12.6 µM | O=C1c2cccc3cccc(c23)C(=O)C1[N+](=O)[O-] [2-nitro-3-oxidanyl-phenalen-1-one]
71.2 µM | Cc1ncc(CO)c(CNNC(=O)C2=CC(=O)C(=O)C(=O)C2)c1O [3,4,5-trihydroxy-N'-{(1E)-[3-hydroxy-5-(hydroxymethyl)-2-methylpyridin-4-yl]methylene}benzohydrazide]
> 300 µM | C=CCOc1cccc(C2C(C(=O)c3cc4ccccc4o3)C(=O)C(=O)N2c2cc(C)on2)c1 (configuration not stated) [3-(1-benzofuran-2-carbonyl)-4-hydroxy-1-(5-methyl-1,2-oxazol-3-yl)-2-(3-prop-2-enoxyphenyl)-2H-pyrrol-5-one]
> 300 µM | Cc1cc(N2C(=O)C(=O)C(C(=O)c3cc4ccccc4o3)C2c2ccc([N+](=O)[O-])cc2)no1 (configuration not stated) [3-(1-benzofuran-2-carbonyl)-4-hydroxy-1-(5-methyl-1,2-oxazol-3-yl)-2-(4-nitrophenyl)-2H-pyrrol-5-one]
> 300 µM | C=CCOc1cccc(C2C(C(=O)c3ccc(C)o3)C(=O)C(=O)N2c2nnc(C)s2)c1 (configuration not stated) [3-(5-methylfuran-2-yl)carbonyl-1-(5-methyl-1,3,4-thiadiazol-2-yl)-4-oxidanyl-2-(3-prop-2-enoxyphenyl)-2H-pyrrol-5-one]
> 300 µM | C=CCOc1cccc(C2C(C(=O)c3ccc(C)o3)C(=O)C(=O)N2c2nccs2)c1 (configuration not stated) [3-(5-methylfuran-2-yl)carbonyl-4-oxidanyl-2-(3-prop-2-enoxyphenyl)-1-(1,3-thiazol-2-yl)-2H-pyrrol-5-one]
51.9 µM | CCCOc1cccc(C2C(C(=O)c3ccco3)C(=O)C(=O)N2c2nnc(C)s2)c1 (configuration not stated) [3-(furan-2-carbonyl)-4-hydroxy-1-(5-methyl-1,3,4-thiadiazol-2-yl)-2-(3-propoxyphenyl)-2H-pyrrol-5-one]
> 300 µM | C=CCOc1ccc(C2C(C(=O)c3ccco3)C(=O)C(=O)N2c2nnc(C)s2)cc1 (configuration not stated) [3-(furan-2-carbonyl)-4-hydroxy-1-(5-methyl-1,3,4-thiadiazol-2-yl)-2-(4-prop-2-enoxyphenyl)-2H-pyrrol-5-one]
